Literature values, collected in patent publication US8790688B2, “Wound care device for local treatment of pain in a wound” (Coloplast A/S, priority 2001, dated 2014).

Details: reported lowest range for systemic effect

Row | Structure (SMILES) | plasma concentration for systemic effect in the lowest range
1 | CN1C(C(=O)Nc2ccccn2)=C(O)c2ccccc2S1(=O)=O [Piroxicam] | 1000 ng/mL
2 | CC(=O)Oc1ccccc1C(=O)O [Acetylsalicylic acid] | 270000 ng/mL
3 | CC(C(=O)O)c1cccc(C(=O)c2ccccc2)c1 (stereo not shown) [Ketoprofen] | 3000 ng/mL
4 | CC(C)Cc1ccc(C(C)C(=O)O)cc1 (stereo not shown) [Ibuprofen] | 10000 ng/mL
